The record followed here is a melting point compilation (Tetko et al.; mined from patent text by program, amines drawn as free bases though some values may be those of a salt).

Residues, ends and D or L forms follow the SMILES beside them. *: point of attachment. Boc = CC(C)(C)OC(=O)* A value given as a limit tells only on which side of the number the result lay.

`CN1CC(Oc2ccc(Nc3cc(-c4cccc(-n5ncc6cc(C(C)(C)C)cc(F)c6c5=O)c4CO)cn(C)c3=O)nc2)C1`: the melting point is more than 300 °C.
Molecule `CC(=O)Nc1ccc(S(=O)(=O)Nc2cc(C)on2)cc1` gave a melting point of 220 to 222 °C.
For `CCOC(=O)C(CC(=O)c1ccc2cc(OC)ccc2c1)C(=O)c1ccccc1` (centres undefined) the value was 136 to 137 °C; for `C[C@@H]1Cc2cc3c(cc2C(c2ccc(N)cc2)=NN1c1ccccn1)OCO3`, 128 to 130 °C; for `CCN1C(=O)Cc2cc3c(cc21)C(=O)c1ccccc1CO3`, 186 to 188 °C.
`CC(=O)Nc1cscc1C(=O)O` showed a melting point of 206 °C.
Next, `Cc1cc(C(O)(C=Cc2ccc(Cl)cc2)C(F)(F)F)ccc1N` (centres undefined): 126 to 129 °C; `CNC(=O)OC1CCN(C(=O)Oc2ccc(Oc3ccccc3)cc2)CC1`: 117 to 119 °C.
Next, `COC(=O)CNC(=O)CNC(=O)OC(C)(C)C` (Boc-Gly-Gly-OMe): 132 to 135 °C; `COC(=O)c1ccccc1NCc1ccncc1`: 86 °C.
On to `O=C(O)c1cccc(-c2cc(-c3ccc(C(F)(F)F)cc3)no2)c1`, for which the melting point fell in the range of 272 to 273 °C.
With `COc1cc(C)cc2nc(S(=O)(=O)Nc3c(Cl)cccc3Cl)nn12`, the melting point was 269 to 270 °C.
In turn, `CC(=O)NOC(=O)Cc1cnc2ccccc2c1O` yielded a melting point of 224 to 225 °C.
Molecule `COc1cc(OC)nc(Oc2ccnc3c(Cl)cccc23)n1` showed a melting point of 115 to 118 °C.
Next, `CCC1(C)NC(=O)N=C1SCc1ccccc1N(C)C` (centres undefined): 111 to 113 °C; `CC(C)Oc1ccc(NC(=S)NCc2ccsc2)cc1`: 80.5 to 81.5 °C; `N#Cc1cc(N)c(Cl)c(N)c1`: 172 °C.
For `CC(=O)c1ccc2c(c1)oc(=O)n2CCCCl`, the melting point lay within 100 to 103 °C.
Next, `OCCCOC(c1ccccc1)(c1ccccc1)c1ccccc1`: 117 to 118 °C; `NS(=O)(=O)c1cc(C(=O)O)cc(NCc2ccccc2)c1Sc1ccccc1`: 224 to 225 °C.
In turn, `c1cc(-c2ccncn2)cc(-n2cnc3cc(-c4ccon4)ccc32)c1` showed a melting point of 214 to 215 °C.
As for `COC1CCN(C2CCN(c3ccc(NC(=O)c4cnn(-c5ccc(Cl)cc5)c4C)cc3C#N)CC2)CC1`, the melting point stood at 245 °C.
In turn, `C(=Cc1ccc(C=Cc2ccccc2)c2ccccc12)c1ccccc1` gave a melting point of 189 °C.
`CC(=O)NC(Cc1ccc(Cl)c(Cl)c1)C(=O)CCc1cc(C(F)(F)F)cc(C(F)(F)F)c1` (centres undefined) came in with a melting point of 124 to 126 °C.
For `CS(=O)(=O)N1CCN(C(CC2Cc3cc(C(N)=O)ccc3O2)C(=O)NO)CC1` (centres undefined) the value was 185 °C; for `CSCCC1(C)CCc2c(C)c(O)c(C)c(C)c2O1` (centres undefined), 66.5 to 67 °C; for `Cc1cc2n(c1)Cc1cc(Cl)ccc1N=C2N1CCN(CC(C)(C)C(=O)O)CC1`, 246 °C.
As for `O=c1oc(-c2ccc(OCc3ccc4ccccc4c3)cc2)cc(O)c1SCCc1ccccc1`, the melting point was in the range of 152 to 154 °C.
Take `CCCN1C(=O)N2C[C@@H](Cc3ccccc3)N=C2c2[nH]c([C@H]3CC[C@H](CN)CC3)nc21`: the melting point lay within 70 to 71 °C.
Molecule `CS(=O)(=O)c1ccc(-c2cnn(Cc3cccnc3)c(=O)c2-c2ccc(F)cc2)cc1` gave a melting point of 160 to 161 °C.
The molecule `O=C1c2cccc3c(Br)ccc(c23)C(=O)N1O` showed a melting point of 248 to 251 °C.
For the molecule `CSc1nc2ccnn2c(NCc2ccccc2)c1C#N`, the melting point turned out to be 165 °C.
Molecule `CC(=O)Nc1nc(C)c(S(=O)(=O)NC(C)(CO)CO)s1` came in with a melting point of 201 °C.
In turn, `CCCCCCC(Oc1ccc(NC(=O)NC(=O)c2c(Cl)cccc2Cl)cc1)c1ccccc1` (centres undefined) returned a melting point of 146 to 149 °C.
Turning to `c1ccc(CNc2c(-c3ccccc3)sc3ccccc23)cc1`, the melting point was in the range of 52 to 53 °C.
Take `Cc1ccccc1C(=O)Oc1cc(O)ccn1`: the melting point was in the range of 116 to 119 °C.
For `CCc1cn(-c2nc(C)nc(NC)n2)c2ccccc12` the value was 174 to 175 °C; for `Cn1cc(-c2cccc(C#N)c2)c(=O)c(-c2cccc(C#N)c2)c1`, 322 to 327 °C.
For the molecule `CCCCCCCCN(C)C(N)=NC#N`, the melting point lay in the range of 101 to 104 °C.
Next, `Cc1nc(C(C)C)c(Sc2cc(Cl)cc(Cl)c2)n1C`: 95 to 96 °C.
As for `CCOC(=O)c1cc(=O)n(Cc2ccc(S(=O)(=O)O)cc2S(=O)(=O)O)[nH]1`, the melting point was more than 300 °C.
Take `CCOC(=O)c1c[nH]c2c(=O)ccc(NC(=O)CC)cc2c1=O`: the melting point is more than 250 °C.
`CN1CCC2(CC1)OC(c1ccccc1)c1ccccc12` (centres undefined) returned a melting point of 123 to 124 °C.
Molecule `CCN(CC)CC1CCCCN1CC(=O)N1c2ccccc2NC(=O)c2c1c(C)cn2C` (centres undefined) yielded a melting point of 176 to 178 °C.
Consider `CC(C)(C)c1ccc(N2CCOCC2)c(N)c1`, for which the melting point lay within 165 to 166 °C.
In turn, `CN(CC(O)c1ccc(C=O)cc1)C(=O)OC(C)(C)C` (centres undefined) registered a melting point of 37 to 39 °C.
For `CC(CO)(CO)NS(=O)(=O)c1cc(NC(=O)c2cnn3c(C(F)F)cc(-c4ccc(C(F)(F)F)cc4)nc23)c(Cl)s1` the value was 237 °C; for `N#CCCNC(=O)c1n[nH]cc1NC(=O)c1ccc(C(F)(F)F)cc1`, 245 to 246 °C; for `CCOC(=O)CN(C)C(=O)c1ccccc1C(=O)c1cc(C(C)(C)C)c(O)c(C(C)(C)C)c1`, 98 to 99 °C.
For `O=C(O)CCCCC[C@H]1CC[C@@H](O)CC1`, the melting point lay within 83 to 85 °C.
With `CCN(CC)CCOc1ccc(Nc2ncc3c(n2)N(c2ccccc2)C(=O)N(c2c(Cl)cccc2Cl)C3)cc1`, the melting point fell in the range of 162 to 163 °C.
`CC(C)CCCCCCCCCCCCc1ccc(O)cc1O`: the melting point amounted to 70 °C.
For `COc1ccc(CNc2nc(OCc3ccccn3)ncc2C(=O)c2ccccn2)cc1Cl` the value was 81 to 84 °C; for `CC1(C)CCc2c(N3CCCC3)nc3sc4c(NCc5ccccn5)ncnc4c3c2C1`, 212 to 213 °C; for `Nc1ccc2c(ccn2Cc2ccccc2)c1`, 66 to 68 °C.
For `CNC(=O)N1CCC(Oc2c(F)c(F)c(F)c(F)c2F)(c2ccccc2)CC1` the value was 87 to 89 °C.
Molecule `NC(=O)NS(=O)(=O)c1cccc(Cl)c1Cl` gave a melting point of 197 to 200 °C.
On to `CCc1cc(OCc2ccc(-c3ccccc3-c3nnn(C(c4ccccc4)(c4ccccc4)c4ccccc4)n3)cc2)c2nc(OCC=O)ccc2n1`, for which the melting point lay in the range of 168 to 169 °C.
`O=S(=O)(Cc1ccc(C(O)c2ccc(Cl)cc2)cc1)C(F)(F)F` (centres undefined) registered a melting point of 113 to 115 °C.
Molecule `CCOCc1nc2c(N)nc3cc(OCc4ccccc4)ccc3c2n1CC(C)(C)NS(C)(=O)=O` came in with a melting point of 264 to 266 °C.
Consider `CC(C)(CBr)c1cc(Cl)nnc1Cl`, for which the melting point is 86.5 to 88.5 °C.
`COC12CC(C)(C)C(O1)C(OC(=O)c1ccc([N+](=O)[O-])cc1)C=C2C` (centres undefined) registered a melting point of 140 to 141 °C.
Consider `COc1cc(Cl)nc(Oc2cccc(Oc3nc(OC)cc(OC)n3)c2C(=O)O)n1`, for which the melting point was 150 to 152 °C.
Regarding `COc1cc(Nc2c(C#N)cnc3cc(I)sc23)cc(OC)c1OC`, the melting point fell in the range of 254 to 256 °C.
In turn, `CS(=O)(=O)c1ccc(Oc2cc(OC3CCOCC3)c3[nH]c(C4=NCC(CCO)S4)cc3c2)nc1` (centres undefined) yielded a melting point of 165 to 166 °C.
Consider `CN1C(=O)C(C(=O)Nc2ccc(Oc3nnc(C(C)(C)C)o3)cc2)C(=O)N(C)C1=O`, for which the melting point fell in the range of 200 to 203 °C.
As to `CCc1noc(-c2cn(-c3ccccc3OCc3ccccc3)cn2)n1`, the melting point worked out at 106 °C.
For `Cc1cc(Br)cc(C(=O)c2[nH]c(=O)[nH]c(=O)c2C(C)C)c1`, the melting point was 266 to 267 °C.
For `OCCc1ccccc1Nc1ncc2c(n1)-c1ccccc1[C@H](c1ccccc1F)C2` the value was 162 to 163 °C.
With `COc1ccn2nc(-c3ccccc3)c(-c3ccc(=O)n(C(C)C)n3)c2c1`, the melting point is 180 to 182 °C.
`COc1cc(OC)c(-c2cccs2)cc1/C=C/C(=O)c1ccc(S(=O)(=O)Nc2nccs2)cc1` showed a melting point of 220 to 221 °C.
The molecule `Nc1ncnc2c1ncn2Cc1oc2ccccc2c(=O)c1-c1cccc(F)c1` displayed a melting point of 224 to 227 °C.
The molecule `C[C@H](Cc1ccc2c(c1)OC(C(=O)O)(C(=O)OCCc1ccccc1)O2)NC[C@H](O)c1cccc(Cl)c1` (some centres undefined) displayed a melting point of 75 to 82 °C.
Next, `CS(=O)(=O)c1ccc(-c2cc(CO)nn2CC2CCCCC2)cc1`: 104 °C; `C=CCOc1cccn2c(=O)cc(C)nc12`: 113 to 115 °C.
For the molecule `O=c1ccc2c([nH]1)C(Nc1ccccc1)CCC2` (centres undefined), the melting point came out at 225 °C.
Molecule `Cc1ccc(S(=O)(=O)OCC2Cc3cc(Cl)cc(-c4ccccc4)c3O2)cc1` (centres undefined) registered a melting point of 127 to 130 °C.
`Cc1ccc(C2=NC(C)(C(C)C)C(=S)N2)cc1` (centres undefined) showed a melting point of 167 to 170 °C.
Next, `Cc1cccc(Cn2cccc2C(=O)CC(=O)C(=O)O)c1`: 140 to 141 °C.
In turn, `Cc1c(Cl)c(Oc2ncc(C(F)(F)F)cc2Cl)nn1C(=O)NC(C)C` registered a melting point of 57 to 59 °C.
`CNC(=O)C(CCN(C)C)(c1ccccc1)C(O)c1ccccc1` (centres undefined) registered a melting point of 107 to 115 °C.
Next, `COC1(OC)CCN(Cc2ccccc2)CC1O` (centres undefined): 90.1 °C; `COc1ccccc1OCCOS(N)(=O)=O`: 81.5 to 83 °C.
In turn, `O=C1Cc2cc(I)ccc2N1` came in with a melting point of 190 to 192 °C.
In turn, `COc1ccc(-c2cnn3c(N)c(-c4cccc(Cl)c4)c(C)nc23)cc1OC` yielded a melting point of 223 to 226 °C.
Consider `CC1(CNC(=O)OC(C)(C)C)CN(c2cccc(Cl)n2)C1`, for which the melting point lay within 108 to 111 °C.
Regarding `CCCCCCCCC(SCCCCCC)C(=O)Nc1c(SC)cc(SC)c2ncccc12` (centres undefined), the melting point is 91 to 93 °C.
The molecule `CCOC(=O)NCN1C(=O)CN=C(c2ccccc2Cl)c2cc(Cl)ccc21` returned a melting point of 147 to 149 °C.
For `CCOC(=S)NC1(N=NC(C)(C)C)CCCCC1` the value was 57 to 62 °C.
